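Method: 48-hour compound exposure of cells in 96-well plates, five concentrations, linear interpolation of endpoints. Abbreviation: GI50, concentration required for 50% inhibition of growth.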 The source made the active and inactive calls. Cut-off read from the data, not from the text of the source: active = GI50 up to about 1.1 µM and inactive = higher.
Legend:
Experiment in all cases: inhibition of tumour cell growth, NCI panel, 48 h
786-0 = tested on: 786-0
ACHN = tested on: ACHN
COLO 205 = tested on: COLO 205
HL-60 = tested on: HL-60
HOP-62 = tested on: HOP-62
M14 = tested on: M14
MCF7 = tested on: MCF7
Malme-3M = tested on: Malme-3M
NCI-H522 = tested on: NCI-H522
SK-MEL-5 = tested on: SK-MEL-5
SN12C = tested on: SN12C
SW-620 = tested on: SW-620
UACC-62 = tested on: UACC-62
OVCAR-3 = tested on: OVCAR-3
OVCAR-4 = tested on: OVCAR-4
RXF 393 = tested on: RXF 393
SF-268 = tested on: SF-268
SK-MEL-2 = tested on: SK-MEL-2
DU-145 = tested on: DU-145
MDA-N = tested on: MDA-N

Measured: GI50

CC(=O)Nc1ccc2nc(-c3cccc(Cl)c3)cc(O)c2c1
inactive: 786-0 13.4 µM | ACHN 64.6 µM | COLO 205 2.99 µM | HL-60 8.34 µM | HOP-62 65 µM | M14 11.1 µM | MCF7 3.77 µM | Malme-3M 3.18 µM | NCI-H522 3.1 µM | SK-MEL-5 4.93 µM | SN12C 32.2 µM | SW-620 4.41 µM | UACC-62 2.42 µM

NCCCNCc1c2ccccc2c(CNCCCN)c2ccccc12
inactive: 786-0 5.9 µM | ACHN 26.7 µM | COLO 205 7.66 µM | HL-60 14.4 µM | HOP-62 22.9 µM | M14 > 10 µM | Malme-3M 11.7 µM | NCI-H522 5.96 µM | OVCAR-3 28.3 µM | OVCAR-4 11.1 µM | RXF 393 15.2 µM | SF-268 5.12 µM | SK-MEL-2 14.9 µM | SK-MEL-5 27.1 µM | SN12C 3.66 µM | SW-620 6.84 µM | UACC-62 36.1 µM

COC1=CC(=O)N(C(=O)C2CSC(C(CO)NC(=O)c3csc(/C=N/O)n3)=N2)C1 (centres undefined)
inactive: 786-0 > 100 µM | ACHN > 100 µM | COLO 205 > 100 µM | DU-145 > 100 µM | HL-60 > 100 µM | HOP-62 > 100 µM | M14 > 100 µM | MCF7 > 100 µM | Malme-3M 64.4 µM | OVCAR-3 > 100 µM | SF-268 > 100 µM | SK-MEL-2 > 100 µM | SK-MEL-5 > 100 µM | SN12C > 100 µM | SW-620 > 100 µM | UACC-62 > 100 µM

C/C(C=O)=N\Nc1cc(C)c2ccccc2n1
inactive: 786-0 14.2 µM | ACHN 16.3 µM | COLO 205 16.4 µM | DU-145 15.5 µM | HOP-62 11.2 µM | M14 15.7 µM | MCF7 12.5 µM | NCI-H522 17.1 µM | OVCAR-3 2.62 µM | OVCAR-4 12.8 µM | RXF 393 17.5 µM | SF-268 16.9 µM | SK-MEL-2 15.2 µM | SK-MEL-5 15.6 µM | SN12C 16.3 µM | SW-620 24.7 µM | UACC-62 14.7 µM

COc1cc2c(cc1OC)C(Cc1cc(Br)c(OC)c(OC)c1)=[N+](C)CC2
inactive: 786-0 > 100 µM | ACHN 90.4 µM | COLO 205 40.6 µM | HL-60 36 µM | HOP-62 43.4 µM | M14 69.8 µM | Malme-3M > 100 µM | NCI-H522 22.8 µM | OVCAR-3 28.2 µM | OVCAR-4 19.2 µM | RXF 393 69.7 µM | SF-268 > 100 µM | SK-MEL-2 > 100 µM | SK-MEL-5 19.2 µM | SN12C 87.3 µM | SW-620 67.3 µM | UACC-62 > 100 µM

CCOC(=O)c1nc2cc(C(F)(F)F)ccc2nc1Nc1ccc(C(=O)OC)s1
inactive: 786-0 29.6 µM | ACHN 37.8 µM | COLO 205 20.7 µM | DU-145 54.6 µM | HL-60 38 µM | HOP-62 33.6 µM | M14 37.6 µM | Malme-3M 38.5 µM | NCI-H522 19.7 µM | OVCAR-3 19.3 µM | OVCAR-4 31 µM | RXF 393 16.8 µM | SF-268 44.9 µM | SK-MEL-2 19.4 µM | SK-MEL-5 40.5 µM | SW-620 49.1 µM | UACC-62 23.2 µM

CCOC(=O)c1nc2ccc(C(F)(F)F)cc2nc1NCc1ccc(OC)c(OC)c1
inactive: 786-0 > 100 µM | ACHN 53.1 µM | COLO 205 35.8 µM | HL-60 22.8 µM | HOP-62 58.3 µM | M14 67.8 µM | MCF7 37.7 µM | MDA-N 51.3 µM | Malme-3M 97.7 µM | NCI-H522 30.6 µM | OVCAR-3 45.8 µM | OVCAR-4 73.5 µM | RXF 393 43.6 µM | SF-268 83.9 µM | SK-MEL-2 24.2 µM | SK-MEL-5 37.8 µM | SW-620 49.7 µM | UACC-62 73.6 µM

CCOC(=O)/C(C#N)=C(/NS(=O)(=O)c1cc(C)c(Cl)cc1[S-])[n+]1ccc(N(C)C)cc1
inactive: 786-0 > 100 µM | ACHN > 100 µM | COLO 205 > 100 µM | DU-145 > 100 µM | HL-60 > 100 µM | HOP-62 > 100 µM | M14 > 100 µM | MCF7 > 100 µM | Malme-3M > 100 µM | NCI-H522 > 100 µM | OVCAR-3 > 100 µM | OVCAR-4 > 100 µM | RXF 393 > 100 µM | SF-268 > 100 µM | SK-MEL-2 > 100 µM | SK-MEL-5 > 100 µM | SN12C > 100 µM | UACC-62 > 100 µM

Cc1cc(C)c2c(n1)S(=O)(=O)N(CCCN1CCN(c3cccc(Cl)c3)CC1)C(C(=O)c1ccc(Br)cc1)=C2O
inactive: 786-0 12.1 µM | ACHN 27.3 µM | COLO 205 15.4 µM | DU-145 26.4 µM | HL-60 14.3 µM | HOP-62 19.9 µM | M14 19.4 µM | MCF7 25.7 µM | Malme-3M 24.7 µM | NCI-H522 20.5 µM | OVCAR-3 16.8 µM | OVCAR-4 11.4 µM | RXF 393 23.8 µM | SF-268 24.5 µM | SK-MEL-2 20.5 µM | SK-MEL-5 15.4 µM | SN12C 11.1 µM | SW-620 34.1 µM | UACC-62 31.6 µM

Nc1cc(N2CCCC2)nc(=O)n1Cc1ccccc1
inactive: 786-0 > 100 µM | ACHN > 100 µM | COLO 205 > 100 µM | DU-145 > 100 µM | HL-60 > 100 µM | HOP-62 > 100 µM | M14 > 100 µM | MCF7 > 100 µM | Malme-3M > 100 µM | NCI-H522 > 100 µM | OVCAR-4 > 100 µM | SF-268 39.5 µM | SK-MEL-2 > 100 µM | SK-MEL-5 > 100 µM | SN12C > 100 µM | SW-620 > 100 µM

Cc1csc2nc(-c3cc([N+](=O)[O-])c(Cl)cc3Cl)c(/C=N/N=C(N)N)n12
inactive: 786-0 19.5 µM | ACHN 16.6 µM | COLO 205 17.9 µM | DU-145 16.7 µM | HL-60 13.5 µM | HOP-62 16.3 µM | M14 17.1 µM | MCF7 15.3 µM | Malme-3M 17.8 µM | NCI-H522 15.9 µM | OVCAR-3 17 µM | OVCAR-4 16 µM | RXF 393 15.9 µM | SF-268 16.5 µM | SK-MEL-2 13.4 µM | SK-MEL-5 16.1 µM | SN12C 16.2 µM | SW-620 17.2 µM | UACC-62 14.2 µM

N#Cc1ccc(-c2nc3cc(Cl)ccc3[nH]2)cc1
inactive: 786-0 > 100 µM | COLO 205 74.8 µM | HL-60 13 µM | HOP-62 > 100 µM | M14 79.1 µM | MCF7 63 µM | MDA-N 49.1 µM | NCI-H522 32.4 µM | OVCAR-3 54.7 µM | RXF 393 > 100 µM | SK-MEL-2 > 100 µM | SK-MEL-5 37.8 µM | SN12C 51.1 µM | SW-620 > 100 µM

CCOC(=O)c1c(N)sc2c1C(C(=O)OCC)CCCC2 (centres undefined)
inactive: 786-0 > 100 µM | ACHN 83.6 µM | COLO 205 85.7 µM | HL-60 26.2 µM | HOP-62 > 100 µM | M14 > 100 µM | MCF7 > 100 µM | MDA-N 69.5 µM | Malme-3M > 100 µM | RXF 393 17.3 µM | SK-MEL-2 94.4 µM | SK-MEL-5 75.2 µM | SN12C 91 µM | SW-620 > 100 µM | UACC-62 78.3 µM

COc1ccc2c(c1)-c1c(c3cc(OC)ccc3n1CCN1CCOCC1)CC2
inactive: 786-0 20.2 µM | ACHN 29.4 µM | COLO 205 20 µM | DU-145 37.8 µM | HOP-62 42.6 µM | M14 15.8 µM | MCF7 29 µM | Malme-3M 28.2 µM | NCI-H522 23.3 µM | OVCAR-3 46.1 µM | OVCAR-4 54 µM | RXF 393 27.1 µM | SF-268 55 µM | SK-MEL-2 55.2 µM | SK-MEL-5 25.4 µM | SN12C 62.2 µM | SW-620 33.7 µM | UACC-62 16.8 µM

COC(=O)C1=C(C[S+]([O-])c2ccc([N+](=O)[O-])cc2[N+](=O)[O-])ON(C)C1c1ccccc1 (centres undefined)
inactive: 786-0 67.1 µM | ACHN 67.6 µM | COLO 205 24.2 µM | HL-60 7.66 µM | HOP-62 39 µM | M14 96.6 µM | Malme-3M > 84.5 µM | NCI-H522 17.7 µM | OVCAR-3 43.2 µM | OVCAR-4 48.4 µM | RXF 393 > 42.2 µM | SF-268 33.5 µM | SK-MEL-2 37 µM | SK-MEL-5 83.9 µM | SN12C 29.4 µM | SW-620 15.7 µM | UACC-62 24.2 µM

COC1=C[C@]2(CCC(=O)O2)[C@@H]2Cc3ccccc3[C@H](O)[C@@H]2C1=O
inactive: 786-0 70.5 µM | ACHN 49.2 µM | COLO 205 > 100 µM | HL-60 25.7 µM | HOP-62 69.3 µM | M14 > 100 µM | MCF7 44 µM | MDA-N 15.8 µM | Malme-3M 24.5 µM | NCI-H522 21.7 µM | OVCAR-3 28.5 µM | OVCAR-4 43.2 µM | SF-268 68.9 µM | SK-MEL-2 28.6 µM | SK-MEL-5 17.5 µM | SN12C 47.6 µM | SW-620 28.4 µM | UACC-62 24.8 µM

— ChEMBL document CHEMBL1201862, “PubChem BioAssay data set” (2004)
